Where no end group is shown, it is not given here.
Tests used:
Gi2 = molecular target: T1, Gi2 (Bos taurus, UniProt A7MBH9); test: GTPγS binding assay, peptide 14-induced Gi2 activation; format: biochemical, bovine; settings: 10 μM peptide variant, 10 nM Gi2, 30 μM peptide 14
T1 construct: trimeric Gi2 (i.e., Gi2 αβγ) purified from bovine brain to near homogeneity; from tissue; host or cells: bovine brain
Protocol: Materials and Methods The in vitro assays described below utilize the couplone portion of each of a number of G-coupled receptors, instead of an intact receptor molecule, as a means for activating the corresponding anticouplone or intact G-protein. Except as noted below, Gi2 used in this study was trimeric Gi2 (i.e., Gi2 αβγ) purified from bovine brain to near homogeneity (Katada et al., FEBS Lett. 213:353-358 (1987), stored in buffer A (20 mM hepes/NaOH (pH 7.4), 1 mM EDTA, and 0.7% CHAPS), and diluted≥10 fold for assays. The Gi2 used for the reconstitution experiment was trimeric Gi2 purified from bovine spleen to homogeneity and dissolved in buffer B (Morishita et al., 1989). Gi3 α (Morishita et al., Biochem. Biophys. Res. Commun. 172:249-255 (1990), was purified from bovine spleen and used in combination with 1.5-fold concentrated Gβγ (Katada et al., 1987). This preparation of Gi3 α was 10-20% contaminated by Gi1 α, but not by other G proteins. Trimeric Gs and Gβγ purified from bovine brain to near homogeneity (Katada et al., 1987) were also stored in buffer A.
GTPγS binding Assay--GTPγS binding to G proteins was assayed at 37° C. in 20 mM Hepes/NaOH buffer (pH 7.4) containing 130 μM MgCl2, 110 μM EDTA and 60 nM [^35 S]GTPγS, as described previously (Okamoto et al., 1990). GTPγS binding to polypeptides was negligible. The total amount of G protein was measured as maximal GTPγS binding at room temperature, as described (Okamoto et al., Cell 67:723-730, 1991a). [^35 S]GTPγS was purchased from DuPont-New England Nuclear. Binding of GTPγS to G proteins obeyed first-order kinetics according to the equation ln[(BT-B)/BT]=-kapp t, where B is the binding at time t and BT is the total binding observable at an infinite time. Thus, the apparent first-order rate constant for GTPγS binding (kapp), which is equal to the slope of the tangent to the GTPγS binding curve at time 0 and represents the actual GTPγS binding rate, was calculated from this equation.
In the experiment illustrated in FIG. 1A, 10 nM Gi2 was incubated with 30 μM peptide 14 (RVGLVRGEKARKGK; SEQ ID NO: 27), the couplone portion of the IGF-II receptor, in the presence of various concentrations of (.quadrature.) ACGi2 (DAVTDVIIKNNLKDC; SEQ ID NO: 3), (567 ) the control Gi2 α Glu297-Asp310 peptide (EAASYIQSKFEKLN; SEQ ID NO: 18), or (.diamond.) the control Gi2 α Lys346-Phe355 peptide (KNNLKDCGLF; SEQ ID NO: 19) for 5 min under the GTPγS binding assay conditions described above, and GTPγS binding to G proteins was measured. The effect of ACGi2 on Gi2 in the absence of peptide 14 is indicated by .box-solid.. Percent stimulation of GTPγS binding was calculated by subtracting the basal fractional binding and dividing by the stimulated fractional binding observed in the absence of ACGi2. The basal fractional binding (=0%) was 0.39 mol GTPγS binding/mol Gi /5 min (5 min^-1). The 100% increase represents the GTPγS binding of 0.85 (5 min^-1). Values in all figures represent the mean ±S.E. of three experiments.
To verify the notion that ACGi2 acts on Gi2 itself, and not on receptor sequences, two series of experiments were performed. First, the dose-response curve for peptide 14 action on Gi2 in the presence of various concentrations of ACGi2 was generated (FIG. 2A). Following incubation of 10 nM Gi2 with various concentrations of peptide 14 in the absence (.quadrature.) or presence of 10 μM (.diamond-solid.) or 30 μM (.box-solid.) ACGi2 for 5 min, GTPγS binding was assayed; fractional GTPγS binding to Gi2 is indicated in the figure.
The second series of experiments investigated the effect of ACGi2 on lower concentrations of Gi2 that had been activated by peptide 14 to the same extent (FIG. 2B). 1 nM Gi2 was incubated for 5 min with 3 μM peptide 14 in the presence of various concentrations of ACGi2, and GTPγS binding was measured. The fractional GTPγS binding at 0% and 100% in this experiment was 0.40 and 0.55 (5 min^-1), respectively. […]

T cell receptor = test: OKT3-induced polyphosphoinositide turnover in Jurkat cells; format: cell-based, human; settings: OKT3 1:100 for 5 min, no peptide
Protocol: Inhibition of T cell receptor function with ACGq. T cell receptor stimulation by monoclonal antibody OKT^3 in Jurkat cells, a line of human T cells, induces measurable polyphosphoinositide (PI) turnover. 10^7 cells were labelled with 5 μCi/ml [^3 H]myoinositol in inositol-free RPMI1640 for 12 hours. After incubating the cells with 500 μM ACGq, samples containing 5×10^5 cells were then exposed to the monoclonal antibody OKT3 (Ortho) at 1:100 dilution for 5 min. Perchloric acid was added to a final concentration of 10% to lyse the cells and terminate the reaction. Cell lysates were collected into tubes and brought to pH>8 by the addition of KOH. Following centrifugation of the lysates, the supernatants were passed over a DOWX anion exchange column (Muromachi Chemicals, Japan) to separate inositol polyphosphates (IPs) from other inositol metabolites, and the amount of [^3 H] label in the inositol trisphosphate (IP3) fraction assessed.

[1] = system: somatostatin receptor/K+ channel linkage in human growth hormone-secreting pituitary adenoma cells; test: Somatostatin-induced K+ currents, whole cell patch clamp; format: cell-based; settings: 100 nM somatostatin, absence of anticouplone peptides
Protocol: Inhibition Of somatostatin receptor function. It is known that somatostatin induces K^+ channel activation in a manner sensitive to pertussis toxin in human growth hormone-secreting tumors (Yamashita et al., Am. J. Physiol. 253:E28-E32, 1987). The effect of each of ACGi2, ACGi3, ACGs, ACGo1, and ACGo2 on somatostatin-induced K^+ currents in human pituitary cells was measured using the patch clamp technique, as described below.
Three human growth hormone-secreting pituitary adenomas were obtained at transsphenoidal surgery. The tissue was minced into small pieces (less than 1 mm in diameter) and was treated with 1000 units/ml dispase (Wako, Japan). These dissociated cells (≈10^5 cells/ml) were seeded onto 35-mm culture dishes. […]
A whole cell variation of the patch electrode voltage clamp technique was used to record membrane currents (Hamill et al., Pfluger Arch. 391:85-100, […]). […] The liquid junction potential between the extracellular solution and the internal solution was directly measured using a 3M KCl electrode as a reference. […]
The intracellular solution that filled the inside of the pipet portion of the apparatus contained one of the following anticouplone peptides at 100 μM: ACGi2, ACGi3, ACGs, ACGo1, or ACGo2. The exterior of the cell was bathed with the extracellular solution containing 100 nM somatostatin while the outward K^+ current was monitored. […]

[2] = system: NRK (rat renal fibroblast) cells; test: TGFβ-induced fibronectin secretion, immunoblot; format: cell-based; settings: 50 pM TGFβ, 12 hours
Text: Inhibition of TGFβ-induced matrix formation. The secretion of matrix proteins (in particular, fibronectin) by kidney, lung and liver cells may lead to sclerosis of those organs. Transforming growth factor-β (TGFβ), which stimulates the secretion of fibronectin, may therefore contribute to such sclerosis. Since the TGFβ receptor is a Go2 -coupled receptor, the ability of ACGo2 to inhibit the TGFβ-induced stimulation of fibronectin secretion by NRK (rat renal fibroblast) cells (Ignotz and Massague, J. Biol. Chem. 261:4337-4345, 1986) was assayed.
NRK cells were cultured in RPMI 1640 supplemented with 5% FCS in a CO2 -incubator at 37° C. The medium was replaced every two days. Cells were regularly subcultured by trypsin-EDTA before reaching confluency. In the experiments described below, the cells were grown in monolayer to confluency in 6-well culture plates (Corning, N.Y.), then incubated for 12 hours with RPMI 1640 plus 0.5% FCS, and for a further 12 hours with RPMI 1640 plus 0.5% FCS in the presence or absence of 50 pM TGFβ (R & D System, Minneapolis, Minn.), to which was added 100 μM ACGi2, ACGs, ACGo2, or ACGq. The medium from each well was collected and frozen at -20° C. until assay. Fibronectin secreted into each sample of medium was assessed by immunoblot as follows: […]

T1 sequence (A7MBH9 2-355 limits assumed): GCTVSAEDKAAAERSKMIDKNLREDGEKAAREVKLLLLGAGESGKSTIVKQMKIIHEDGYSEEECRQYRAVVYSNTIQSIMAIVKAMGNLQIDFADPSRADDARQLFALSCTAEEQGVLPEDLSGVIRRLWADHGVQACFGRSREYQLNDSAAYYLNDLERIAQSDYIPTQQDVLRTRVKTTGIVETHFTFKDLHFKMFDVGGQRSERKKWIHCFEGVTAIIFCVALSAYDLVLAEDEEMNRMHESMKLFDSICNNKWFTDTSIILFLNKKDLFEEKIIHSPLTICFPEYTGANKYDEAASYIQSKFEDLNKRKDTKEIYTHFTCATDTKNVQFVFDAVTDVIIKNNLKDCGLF
T1 sequence (P62871 2-340 partner limits assumed): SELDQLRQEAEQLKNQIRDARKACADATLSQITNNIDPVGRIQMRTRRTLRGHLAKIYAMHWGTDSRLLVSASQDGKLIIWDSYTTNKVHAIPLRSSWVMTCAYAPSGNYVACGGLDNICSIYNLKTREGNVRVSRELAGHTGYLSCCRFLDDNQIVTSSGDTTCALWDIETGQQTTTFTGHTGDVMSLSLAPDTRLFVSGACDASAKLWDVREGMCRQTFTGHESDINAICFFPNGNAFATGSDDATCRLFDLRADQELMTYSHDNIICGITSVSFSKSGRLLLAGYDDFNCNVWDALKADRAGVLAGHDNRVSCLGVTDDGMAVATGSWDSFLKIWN
T1 sequence (P63212 2-68 partner limits assumed): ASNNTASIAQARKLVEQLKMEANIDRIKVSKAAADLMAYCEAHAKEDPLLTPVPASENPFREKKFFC

| Compound | inhibition at 10 µM (Gi2) | also measured |
| --- | --- | --- |
| AAVTDVIIKNNLKDC [A1 variant, AAVTDVIIKNNLKDC] | ≥ 30% | – |
| OKT3: monoclonal antibody OKT3 (Ortho) stimulating the T cell receptor | – | [3H] incorporation into IP relative to control cells not exposed to OKT3 (T cell receptor): 157% |
| DAVTAVIIKNNLKDC [A2 variant, DAVTAVIIKNNLKDC] | ≥ 80% | – |
| C[C@H](N)C(=O)NCC(=O)N[C@H]1CSSC[C@@H](C(=O)O)NC(=O)[C@H](CO)NC(=O)[C@H]([C@@H](C)O)NC(=O)[C@H](Cc2ccccc2)NC(=O)[C@H]([C@@H](C)O)NC(=O)[C@H](CCCCN)NC(=O)[C@H](Cc2c[nH]c3ccccc23)NC(=O)[C@H](Cc2ccccc2)NC(=O)[C@H](Cc2ccccc2)NC(=O)[C@H](CC(N)=O)NC(=O)[C@H](CCCCN)NC1=O [somatostatin] | – | K+ current induced over baseline [1]: approximately 20 pA |
| TGFβ: Transforming growth factor-β, which stimulates the secretion of fibronectin | – | fibronectin secreted by cells exposed to TGFβ [2]: significant amount of fibronectin is secreted |
| DAVTDVIIKNNLKD [del C variant, DAVTDVIIKNNLKD] | ≥ 30% | – |
| DAVTDVIIK [p9 variant, DAVTDVIIK] | ≥ 30% | – |
| DAVTDVIIKNNLKAC [A5 variant, DAVTDVIIKNNLKAC] | ≥ 80% | – |
| DAVTDVIIKANLKDC [A3 variant, DAVTDVIIKANLKDC] | ≥ 30% | – |

From patent US5559209A, “Regulator regions of G proteins” (The General Hospital Corporation, priority 1993, dated 1996)
